Where two headings read alike, the source gives them in different places.
Tests used:
Staphylococcus hominis = format: cell-based
Method: (§1) It was also tested whether compounds #63 and #285 can inhibit other coagulase-negative Staphylococcus (CNS) including S. epidermidis, S. hominis, etc. […].

[1] = test system: Staphylococcus epidermidis; format: cell-based
Method: as §1

[2] = test system: S. aureus ATCC strains and MRSA; format: cell-based, Staphylococcus aureus
[3] = test system: Coagulase negative Staphylococcus; assay: Antibiotic susceptibility of coagulase negative Staphylococcus strains; format: cell-based
[4] = Se1 (Staphylococcus epidermidis)
[5] = Se2 (Staphylococcus epidermidis)
[6] = Se3 (Staphylococcus epidermidis)
[7] = Se4 (Staphylococcus epidermidis)
[8] = Se5 (Staphylococcus epidermidis)
[9] = CNS1 (Coagulase negative Staphylococcus)
[10] = CNS2 (Coagulase negative Staphylococcus)

| SMILES | Antibiotic susceptibility ([2]; S. aureus ATCC 25923) | Antibiotic susceptibility ([2]; S. aureus ATCC 29213) | Antibiotic susceptibility ([2]; S. aureus ATCC BAA 976) | Antibiotic susceptibility ([2]; S. aureus ATCC BAA 977) | Antibiotic susceptibility ([2]; S. aureus ATCC BAA 1026) | Antibiotic susceptibility ([2]; Sa1 (MRSA)) | Antibiotic susceptibility ([2]; Sa2 (MRSA)) | Antibiotic susceptibility ([2]; Sa3 (MRSA)) | Antibiotic susceptibility ([2]; Sa6 (MRSA)) | Antibiotic susceptibility ([2]; Sa7 (MRSA)) | Antibiotic susceptibility ([2]; Sa9 (MRSA)) | Antibiotic susceptibility ([2]; Sa11 (MRSA)) | Antibiotic susceptibility ([2]; Sa12 (MRSA)) | Antibiotic susceptibility ([2]; Sa14 (MRSA)) | Antibiotic susceptibility ([2]; Sa15 (MRSA)) | Antibiotic susceptibility ([2]; Sa16 (MRSA)) | Antibiotic susceptibility ([2]; Sa17 (MRSA)) | Antibiotic susceptibility ([2]; Sa18 (MRSA)) | Antibiotic susceptibility ([2]; Sa19 (MRSA)) | Antibiotic susceptibility ([2]; Sa20 (MRSA)) | other results |
| --- | --- | --- | --- | --- | --- | --- | --- | --- | --- | --- | --- | --- | --- | --- | --- | --- | --- | --- | --- | --- | --- |
| CC(=O)NC[C@H]1CN(c2ccc(N3CCOCC3)c(F)c2)C(=O)O1 [LZD, linezolid] | S | S | S | S | S | S | S | S | S | S | S | S | S | S | S | S | S | S | S | S | Antibiotic susceptibility (Staphylococcus hominis; Sh1 (Staphylococcus hominis)): S; Antibiotic susceptibility (Staphylococcus hominis; Sh2 (Staphylococcus hominis)): S; Antibiotic susceptibility (Staphylococcus hominis; Sh3 (Staphylococcus hominis)): S; Antibiotic susceptibility [1, 4]: S; Antibiotic susceptibility [1, 5]: S; Antibiotic susceptibility [1, 6]: S; Antibiotic susceptibility [1, 7]: S; Antibiotic susceptibility [1, 8]: S; Antibiotic susceptibility ([2]; Sa5 (MRSA)): S; Antibiotic susceptibility ([2]; Sa8 (MRSA)): S; Antibiotic susceptibility ([2]; Sa10 (MRSA)): S; Antibiotic susceptibility ([2]; Sa21 (MRSA)): S; Antibiotic susceptibility ([2]; Sa22 (MRSA)): S; Antibiotic susceptibility ([2]; Sa23 (MRSA)): S; Antibiotic susceptibility [3, 9]: S; Antibiotic susceptibility [3, 10]: S |
| COc1c(N2C[C@@H]3CCCN[C@@H]3C2)c(F)cc2c(=O)c(C(=O)O)cn(C3CC3)c12 [MXF, moxifloxacin] | S | S | S | S | I | R | I | I | R | S | R | R | I | I | R | I | R | I | S | I | Antibiotic susceptibility (Staphylococcus hominis; Sh1 (Staphylococcus hominis)): R; Antibiotic susceptibility (Staphylococcus hominis; Sh2 (Staphylococcus hominis)): S; Antibiotic susceptibility (Staphylococcus hominis; Sh3 (Staphylococcus hominis)): S; Antibiotic susceptibility [1, 4]: R; Antibiotic susceptibility [1, 5]: S; Antibiotic susceptibility [1, 6]: R; Antibiotic susceptibility [1, 7]: R; Antibiotic susceptibility [1, 8]: R; Antibiotic susceptibility ([2]; Sa5 (MRSA)): R; Antibiotic susceptibility ([2]; Sa8 (MRSA)): R; Antibiotic susceptibility ([2]; Sa10 (MRSA)): R; Antibiotic susceptibility ([2]; Sa21 (MRSA)): S; Antibiotic susceptibility ([2]; Sa22 (MRSA)): S; Antibiotic susceptibility ([2]; Sa23 (MRSA)): S; Antibiotic susceptibility [3, 9]: S; Antibiotic susceptibility [3, 10]: R |
| Cc1onc(-c2ccccc2)c1C(=O)N[C@@H]1C(=O)N2[C@@H]1SC(C)(C)[C@@H]2C(=O)O [OXA, Oxacillin] | S | S | R | S | R | R | R | R | R | R | R | R | R | R | R | R | R | R | R | R | Antibiotic susceptibility (Staphylococcus hominis; Sh1 (Staphylococcus hominis)): R; Antibiotic susceptibility (Staphylococcus hominis; Sh2 (Staphylococcus hominis)): R; Antibiotic susceptibility (Staphylococcus hominis; Sh3 (Staphylococcus hominis)): R; Antibiotic susceptibility [1, 4]: R; Antibiotic susceptibility [1, 5]: R; Antibiotic susceptibility [1, 6]: R; Antibiotic susceptibility [1, 7]: R; Antibiotic susceptibility [1, 8]: R; Antibiotic susceptibility ([2]; Sa5 (MRSA)): R; Antibiotic susceptibility ([2]; Sa8 (MRSA)): R; Antibiotic susceptibility ([2]; Sa10 (MRSA)): R; Antibiotic susceptibility ([2]; Sa21 (MRSA)): R; Antibiotic susceptibility ([2]; Sa22 (MRSA)): R; Antibiotic susceptibility ([2]; Sa23 (MRSA)): R; Antibiotic susceptibility [3, 9]: R; Antibiotic susceptibility [3, 10]: R |
| CO[C@H]1/C=C/O[C@@]2(C)Oc3c(C)c(O)c4c(O)c(c(/C=N/N5CCN(C)CC5)c(O)c4c3C2=O)NC(=O)/C(C)=C\C=C\[C@H](C)[C@H](O)[C@@H](C)[C@@H](O)[C@@H](C)[C@H](OC(C)=O)[C@@H]1C [RIF, Rifampin] | S | S | S | S | S | S | S | S | S | S | S | S | S | S | R | S | S | S | S | S | Antibiotic susceptibility (Staphylococcus hominis): S; Antibiotic susceptibility [1]: S; Antibiotic susceptibility ([2]; Sa21 (MRSA)): S; Antibiotic susceptibility ([2]; Sa22 (MRSA)): S; Antibiotic susceptibility ([2]; Sa23 (MRSA)): S; MRSA strains resistant ([2]; number of resistant strains out of 21 MRSA strains): 1/21; Antibiotic susceptibility [3, 9]: S; Antibiotic susceptibility [3, 10]: S |
| CN(C)[C@@H]1C(O)=C(C(N)=O)C(=O)[C@@]2(O)C(O)=C3C(=O)c4c(O)cccc4[C@@](C)(O)[C@H]3C[C@@H]12 [TET, Tetracycline] | S | S | S | S | S | S | S | S | S | S | S | S | S | S | S | S | S | S | S | S | Antibiotic susceptibility (Staphylococcus hominis; Sh1 (Staphylococcus hominis)): R; Antibiotic susceptibility (Staphylococcus hominis; Sh2 (Staphylococcus hominis)): R; Antibiotic susceptibility (Staphylococcus hominis; Sh3 (Staphylococcus hominis)): S; Antibiotic susceptibility [1, 4]: S; Antibiotic susceptibility [1, 5]: S; Antibiotic susceptibility [1, 6]: S; Antibiotic susceptibility [1, 7]: S; Antibiotic susceptibility [1, 8]: S; Antibiotic susceptibility ([2]; Sa5 (MRSA)): S; Antibiotic susceptibility ([2]; Sa21 (MRSA)): S; Antibiotic susceptibility ([2]; Sa22 (MRSA)): S; Antibiotic susceptibility ([2]; Sa23 (MRSA)): S; Antibiotic susceptibility [3, 9]: S; Antibiotic susceptibility [3, 10]: S |
| CN(C)c1cc(NC(=O)CNC(C)(C)C)c(O)c2c1C[C@H]1C[C@H]3[C@H](N(C)C)C(O)=C(C(N)=O)C(=O)[C@@]3(O)C(O)=C1C2=O [TGC, Tigecycline] | S | S | S | S | S | S | S | S | S | S | S | S | S | S | S | S | S | S | S | S | Antibiotic susceptibility (Staphylococcus hominis; Sh1 (Staphylococcus hominis)): S; Antibiotic susceptibility (Staphylococcus hominis; Sh2 (Staphylococcus hominis)): S; Antibiotic susceptibility (Staphylococcus hominis; Sh3 (Staphylococcus hominis)): S; Antibiotic susceptibility [1, 4]: S; Antibiotic susceptibility [1, 5]: S; Antibiotic susceptibility [1, 6]: S; Antibiotic susceptibility [1, 7]: S; Antibiotic susceptibility [1, 8]: S; Antibiotic susceptibility ([2]; Sa21 (MRSA)): S; Antibiotic susceptibility ([2]; Sa22 (MRSA)): S; Antibiotic susceptibility ([2]; Sa23 (MRSA)): S; Antibiotic susceptibility [3, 9]: S; Antibiotic susceptibility [3, 10]: S |

Reference: patent US12502362B2, “Inhibitors of nucleotidyltransferase superfamily enzymes as antibiotics” (priority 2017, dated 2025)
